Measured values published in patent publication US12551500B2, “C6′-substituted locked nucleic acid-modified cap analog and use thereof” (Hangzhou Tianlong Pharmaceutical Co., Ltd., priority 2024, dated 2026).

Key:
T7 RNA polymerase [1] = molecular target: T1, T7 RNA polymerase (Escherichia phage T7, UniProt P00573); assay: In vitro transcription yield of mRNA with cap analog (co-transcriptional capping); format: biochemical; parameters: in vitro transcription yield of mRNA: unit not given here; conditions: for Yield per unit template: in vitro transcription, 1 μg DNA template, 20 μL system, 37° C. 2 hours
Method: (1) Capping synthesis using cap analogs
The plasmid was first linearized with plasmid linearizing enzyme, and then the linearized plasmid was purified.
(2) In vitro transcription and synthesis of mRNA
(§1) YK-CAP-001 to 006 and compound 14 in Table 1 were respectively used as cap analogs.
(§2) During the experiment, the volume of materials required for the system was first calculated, and then sample addition was conducted. The system was first added with sterile enzyme-free water, followed by the sequential addition of 10× buffer, NTPs, and cap analogs, mixed well, and gently centrifuged. Nuclease inhibitors, inorganic pyrophosphatase, T7 RNA polymerase, and linearized DNA templates were then added thereto. The system was mixed well, gently centrifuged, and incubated at 37° C. After 2 hours of incubation, the system was added with 1 U of DNase I and incubated at 37° C. for another 30 minutes. The mRNA precipitate was then washed with 75% ethanol, and after the ethanol was briefly evaporated to dryness, the mRNA was redissolved in sterile enzyme-free water.
(3) The transcription product was purified, and the in vitro transcription yield of mRNA was recorded.

DCP2 enzyme = molecular target: T2, DCP2 enzyme (Schizosaccharomyces pombe, UniProt O13828); assay: Decapping enzyme stability test; format: biochemical; conditions: 30 pmol RNA, 50 U mRNA decapping enzyme, 37° C., 45 minutes
T2 construct: purchased New England Biolabs
T2 sequence (O13828 1-243 limits assumed): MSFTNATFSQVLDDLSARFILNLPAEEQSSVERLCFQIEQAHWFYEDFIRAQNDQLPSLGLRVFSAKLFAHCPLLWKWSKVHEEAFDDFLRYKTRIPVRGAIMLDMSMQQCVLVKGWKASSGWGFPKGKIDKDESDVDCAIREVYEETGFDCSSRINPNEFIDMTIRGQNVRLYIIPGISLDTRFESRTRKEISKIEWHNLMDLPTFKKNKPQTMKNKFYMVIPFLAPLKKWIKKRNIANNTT
T2 sequence (Q9P805 1-127 partner): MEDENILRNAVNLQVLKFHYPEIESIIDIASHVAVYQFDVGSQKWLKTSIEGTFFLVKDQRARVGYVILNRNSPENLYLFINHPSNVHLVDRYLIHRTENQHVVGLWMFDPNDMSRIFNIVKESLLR
T2 sequence (Q10108 155-180 partner limits assumed): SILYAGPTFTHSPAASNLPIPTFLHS
Method: 30 pmol of RNAs purified by polyacrylamide gel electrophoresis (PAGE) was subjected to an enzymatic reaction with 50 U of mRNA decapping enzyme (New England Biolabs) and 1×MDE buffer at 37° C. for 45 minutes. The enzymatic reactants were subjected to PAGE and stained with SYBR Green II (Lonza), followed by observation of the post-electrophoresis gel image on a Typhoon FLA 7000 (GE Healthcare) instrument. The electrophoresis band intensity ratio of RNA capping to RNA decapping was counted using ImageQuant (GE Healthcare) software, and the decapping rate of the decapping enzyme was calculated (as shown in Table 6).

BALB/C mice = assay: In vivo imaging of protein expressed by LNP-carrying Fluc-mRNA in mice; conditions: female BALB/C mice
Method: The LNP preparation containing […] of Fluc-mRNAs transcribed using the cap analogs YK-CAP-001 to 006 in the present disclosure and the cap analogs N-7413, compound 14, and m6A in the prior art was intramuscularly injected into female BALB/C mice aged 4 to 6 weeks and weighing 17 to 19 g. At specific time points after administration (6 hours, 12 hours, 24 hours, 48 hours, 96 hours, and 168 hours), the mice were intraperitoneally injected with fluorescence imaging substrate. The mice were then allowed to move freely for 5 minutes, followed by detection of the average radiation intensity (corresponding to the amount of protein expression) of the protein expressed by LNP-carrying mRNA in the mice using an IVIS Spectrum small-animal in vivo imaging system.

T7 RNA polymerase [2] = molecular target: T1, T7 RNA polymerase; assay: Capping rate of in vitro transcribed mRNA by LC-MS; format: biochemical; conditions: mRNA transcribed with the cap analog, LC-MS
Method: as §1, §2
(4) The obtained mRNA was subjected to an annealing reaction with a probe.
The annealing reaction was performed in a PCR instrument: 95° C. for 5 minutes; 65° C. for 2 minutes; 55° C. for 2 minutes; 40° C. for 2 minutes; 22° C. for 2 minutes.
(5) Magnetic bead pretreatment and probe binding: 100 μL of magnetic beads was placed on a magnetic frame for pretreatment. The magnetic bead solution was added with 120 μL of sample and incubated at room temperature for 30 minutes with slow mixing.
(6) mRNA splicing and obtaining the 5′ single-strand sequence bound to the probe
The mixture was added with 20 μL of RNase H (5 U/μL) and incubated at 37° C. for 3 hours with mixing every half hour. After incubation, the magnetic beads were washed and then added with 100 μL of 75% methanol heated to 80° C. The mixture was heated to 80° C. on a heating plate, held for 3 minutes, then placed on a magnetic frame to aspirate the supernatant, and dried at room temperature for 45 minutes to a volume of 10 μL using a centrifugal evaporator. The sample was then resuspended in 50 μL of 100 μM EDTA/1% MeOH and ready for LC-MS analysis to determine the capping of RNA in the transcription reaction. Since there is a significant difference in molecular weight between capped and uncapped bases, the capping rate of mRNA transcription initiated by different cap analogs can be determined based on the difference in molecular mass.

[3] = Characterization of lipid nanoparticles encapsulating Fluc-mRNA; format: physicochemical; conditions: for Particle size: LNP (YK-009/DSPC/cholesterol/DMG-PEG2000) encapsulating Fluc-mRNA transcribed using the cap analog; for PDI: LNP encapsulating Fluc-mRNA transcribed using the cap analog; for EE: encapsulation efficiency of LNP encapsulating Fluc-mRNA transcribed using the cap analog
Method: Cationic lipid YK-009 (Beijing Youcare Kechuang Pharmaceutical Technology Co., Ltd.), DSPC (AVT (Shanghai) Pharmaceutical Technology Co., Ltd.), cholesterol (AVT (Shanghai) Pharmaceutical Technology Co., Ltd.), and DMG-PEG2000 were dissolved in ethanol at a molar ratio of 49:10:39.5:1.5, and the mRNA was diluted in 50 mM citrate buffer (pH=4). The ethanol lipid solution was mixed with the Fluc-mRNA aqueous solution prepared from different cap structures at a volume ratio of 1:3 using a microfluidic device at a flow rate of 10 mL/min to prepare LNPs at a weight ratio of total lipid to mRNA of approximately 15:1. The resulting liposomes were diluted to 10-fold volume with PBS, and then ultrafiltered with a 300 KDa ultrafiltration tube to remove ethanol. The volume was then fixed to a certain volume with PBS. Finally, the LNPs were filtered through a 0.2 μm sterile filter to obtain an LNP preparation encapsulating Fluc-mRNA using YK-009/DSPC/cholesterol/DMG-PEG2000 (at a molar ratio of 49:10:39.5:1.5).
The particle size and polydispersity index (PDI) were determined by dynamic light scattering using a Malvern laser particle size analyzer. 10 μL of the liposome solution was taken, diluted to 1 mL with RNase-free deionized water, and added to a sample pool. Each sample was measured in triplicate. The measurement conditions were: a scattering angle of 90° and a temperature of 25° C. The encapsulation efficiency of LNPs was determined using the Quant-iT RiboGreen RNA Quantification Kit (Thermo Fisher Scientific, UK) according to the manufacturer's instructions.

[4] = 6 h after intramuscular injection of LNP Fluc-mRNA
[5] = 12 h after intramuscular injection of LNP Fluc-mRNA
[6] = 24 h after intramuscular injection of LNP Fluc-mRNA
[7] = 48 h after intramuscular injection of LNP Fluc-mRNA
[8] = 96 h after intramuscular injection of LNP Fluc-mRNA
[9] = 168 h after intramuscular injection of LNP Fluc-mRNA

T1 sequence (P00573 whole entry): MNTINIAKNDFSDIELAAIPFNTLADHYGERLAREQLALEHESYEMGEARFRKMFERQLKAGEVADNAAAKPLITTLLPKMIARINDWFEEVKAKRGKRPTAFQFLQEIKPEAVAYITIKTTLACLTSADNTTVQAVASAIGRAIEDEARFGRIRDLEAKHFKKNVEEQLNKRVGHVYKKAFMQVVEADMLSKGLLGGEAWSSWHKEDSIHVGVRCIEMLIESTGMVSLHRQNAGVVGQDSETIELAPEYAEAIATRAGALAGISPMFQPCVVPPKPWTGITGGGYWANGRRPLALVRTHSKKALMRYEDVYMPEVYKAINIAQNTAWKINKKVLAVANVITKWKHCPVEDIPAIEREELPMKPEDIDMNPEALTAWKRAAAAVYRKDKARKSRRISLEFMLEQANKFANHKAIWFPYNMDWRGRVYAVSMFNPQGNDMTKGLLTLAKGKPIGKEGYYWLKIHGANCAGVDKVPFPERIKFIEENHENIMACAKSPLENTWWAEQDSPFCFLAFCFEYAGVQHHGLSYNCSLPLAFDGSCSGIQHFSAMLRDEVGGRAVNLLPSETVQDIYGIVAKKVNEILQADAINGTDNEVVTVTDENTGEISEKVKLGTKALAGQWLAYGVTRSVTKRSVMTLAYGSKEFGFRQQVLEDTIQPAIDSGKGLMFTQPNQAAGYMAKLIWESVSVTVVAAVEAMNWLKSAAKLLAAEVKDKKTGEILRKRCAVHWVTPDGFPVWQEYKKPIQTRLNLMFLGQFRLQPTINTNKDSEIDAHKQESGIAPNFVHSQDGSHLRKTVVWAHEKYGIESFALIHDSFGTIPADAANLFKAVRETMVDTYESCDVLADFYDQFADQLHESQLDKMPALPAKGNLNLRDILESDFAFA

SMILES: COC1C(OP(=O)([O-])OC[C@H]2O[C@@H](n3cnc4c(=O)[nH]c(N)nc43)C(O)C2O)[C@@H](COP(=O)(O)OP(=O)(O)OP(=O)(O)OC[C@]23COC(C2O)[C@H]([n+]2cn(C)c4c(=O)[nH]c(N)nc42)O3)O[C@H]1n1cnc2c(N)ncnc21 (stereo partly drawn) [Compound 14, reference compound]
- Yield per unit template (T7 RNA polymerase [1]): 120.9 µg
- Decapping rate (%) of DCP2 enzyme (DCP2 enzyme): 28.8%
- Average radiation intensity (BALB/C mice; [4]): 2589500 p/s/cm^2/sr
- Average radiation intensity (BALB/C mice; 6 h after intramuscular injection of LNP Fluc-mRNA, listed as compound 14): 2,589,500 p/s/cm^2/sr
- Average radiation intensity (BALB/C mice; [5]): 1622075 p/s/cm^2/sr
- Average radiation intensity (BALB/C mice; [6]): 1099050 p/s/cm^2/sr
- Average radiation intensity (BALB/C mice; [7]): 946675 p/s/cm^2/sr
- Average radiation intensity (BALB/C mice; [8]): 57270 p/s/cm^2/sr
- Average radiation intensity (BALB/C mice; [9]): 17828 p/s/cm^2/sr
- Capping rate (T7 RNA polymerase [2]): 77.5%
- Particle size [3]: 102.2 nm
- PDI [3]: 0.018
- EE [3]: 96.8%

SMILES: COCC1C(O)[C@H]([n+]2cn(C)c3c(=O)[nH]c(N)nc32)O[C@@H]1COP(=O)(O)OP(=O)(O)OP(=O)(O)OC[C@H]1O[C@@H](n2cnc3c(N)ncnc32)C(OC)C1OP(=O)([O-])OC[C@H]1O[C@@H](n2cnc3c(=O)[nH]c(N)nc32)C(O)C1O (stereo partly drawn) [HN3002, reference compound]
- Decapping rate (%) of DCP2 enzyme (DCP2 enzyme): 23.2%
- Particle size [3]: 91.03 nm
- PDI [3]: 0.032
- EE [3]: 94.8%

SMILES: COC1C(OP(=O)([O-])OC[C@H]2O[C@@H](n3cnc4c(=O)[nH]c(N)nc43)C(O)C2O)[C@@H](COP(=O)(O)OP(=O)(O)OP(=O)(O)OC[C@H]2O[C@@H]([n+]3cn(C)c4c(=O)[nH]c(N)nc43)C(O)C2OC)O[C@H]1n1cnc2c(N)ncnc21 (stereo partly drawn) [N-7413, reference compound]
- Decapping rate (%) of DCP2 enzyme (DCP2 enzyme): 48.6%
- Average radiation intensity (BALB/C mice; [5]): 1806125 p/s/cm^2/sr
- Average radiation intensity (BALB/C mice; [6]): 906625 p/s/cm^2/sr
- Average radiation intensity (BALB/C mice; [7]): 710545 p/s/cm^2/sr
- Average radiation intensity (BALB/C mice; [8]): 68400 p/s/cm^2/sr
- Average radiation intensity (BALB/C mice; [9]): 18233 p/s/cm^2/sr
- Particle size [3]: 100.5 nm
- PDI [3]: 0.041
- EE [3]: 95.4%

SMILES: COC1C(OP(=O)([O-])OC[C@H]2O[C@@H](n3cnc4c(=O)[nH]c(N)nc43)C(O)C2O)[C@@H](COP(=O)(O)OP(=O)(O)OP(=O)(O)OC[C@]23O[C@@H]([n+]4cn(C)c5c(=O)[nH]c(N)nc54)C(O[C@H]2CCN(C)C)C3O)O[C@H]1n1cnc2c(N)ncnc21 (stereo partly drawn) [YK-CAP-001]
- in vitro transcription yield of mRNA (T7 RNA polymerase [1]): 89.3
- Yield per unit template (T7 RNA polymerase [1]): 89.3 µg
- Decapping rate (%) of DCP2 enzyme (DCP2 enzyme): 26.3%
- Average radiation intensity (BALB/C mice; [4]): 1728300 p/s/cm^2/sr
- Average radiation intensity (BALB/C mice; [5]): 985800 p/s/cm^2/sr
- Average radiation intensity (BALB/C mice; [6]): 612430 p/s/cm^2/sr
- Average radiation intensity (BALB/C mice; [7]): 578750 p/s/cm^2/sr
- Average radiation intensity (BALB/C mice; [8]): 43485 p/s/cm^2/sr
- Average radiation intensity (BALB/C mice; [9]): 10467 p/s/cm^2/sr
- Capping rate (T7 RNA polymerase [2]): 73.1%
- Particle size [3]: 86.13 nm
- PDI [3]: 0.044
- EE [3]: 95.7%

SMILES: COC1C(OP(=O)([O-])OC[C@H]2O[C@@H](n3cnc4c(=O)[nH]c(N)nc43)C(O)C2O)[C@@H](COP(=O)(O)OP(=O)(O)OP(=O)(O)OC[C@]23O[C@@H]([n+]4cn(C)c5c(=O)[nH]c(N)nc54)C(O[C@H]2CC#N)C3O)O[C@H]1n1cnc2c(N)ncnc21 (stereo partly drawn) [YK-CAP-002]
- Yield per unit template (T7 RNA polymerase [1]): 103.1 µg
- Decapping rate (%) of DCP2 enzyme (DCP2 enzyme): 24.6%
- Average radiation intensity (BALB/C mice; [4]): 1466925 p/s/cm^2/sr
- Average radiation intensity (BALB/C mice; [5]): 801300 p/s/cm^2/sr
- Average radiation intensity (BALB/C mice; [6]): 278665 p/s/cm^2/sr
- Average radiation intensity (BALB/C mice; [7]): 320725 p/s/cm^2/sr
- Average radiation intensity (BALB/C mice; [8]): 20893 p/s/cm^2/sr
- Average radiation intensity (BALB/C mice; [9]): 9768 p/s/cm^2/sr
- Capping rate (T7 RNA polymerase [2]): 70.2%
- Particle size [3]: 86.31 nm
- PDI [3]: 0.058
- EE [3]: 93.1%

SMILES: CNc1ncnc2c1ncn2[C@@H]1O[C@H](COP(=O)(O)OP(=O)(O)OP(=O)(O)OC[C@H]2O[C@@H]([n+]3cn(C)c4c(=O)[nH]c(N)nc43)C(O)C2O)C(OP(=O)([O-])OC[C@H]2O[C@@H](n3cnc4c(=O)[nH]c(N)nc43)C(O)C2O)C1OC (stereo partly drawn) [m6A, reference compound]
- Decapping rate (%) of DCP2 enzyme (DCP2 enzyme): 27.5%
- Average radiation intensity (BALB/C mice; [5]): 702940 p/s/cm^2/sr
- Average radiation intensity (BALB/C mice; [6]): 201585 p/s/cm^2/sr
- Average radiation intensity (BALB/C mice; [7]): 238500 p/s/cm^2/sr
- Average radiation intensity (BALB/C mice; [8]): 33586 p/s/cm^2/sr
- Average radiation intensity (BALB/C mice; [9]): 12000 p/s/cm^2/sr
- Particle size [3]: 89.99 nm
- PDI [3]: 0.047
- EE [3]: 94.2%
